Here are results for 19 molecules from patent US20260217706A1, “HETEROCYCLIC COMPOUNDS, PREPARATION METHOD THEREFOR AND USE THEREOF” (GUANGZHOU YUFAN NANTU BIOTECHNOLOGIES CO., LTD, priority 2023, published 2026).

One assay concerns the target CBL-B protein (Homo sapiens, UniProt Q13191). Nature of the assay: CBL-B binding experiment (Streptavidin-Tb cryptate / Ligand L1 displacement). Particulars: 8 nM CBL-B protein, 25° C., 60 minutes; Ki=Relative IC50/2. Put shortly: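 Buffer was 20 mM HEPES pH 7.5, 150 mM NaCl, 0.01% Triton X-100, 0.5 mM TCEP and BSA. Ten-point compound dilutions were incubated with 8 nM CBL-B for 60 min at 25° C., then read by luminescence after another 60 min at room temperature. IC50 came from a four-parameter fit, with Ki = relative IC50/2.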

Assay [1] concerns anti-CD3 activated human PBMCs. Description: Effect of compounds on the level of IL-2 secretion by anti-CD3 activated human PBMCs (IL-2 ELISA). The settings on record: compound concentration at which fold change in IL-2 = 5; hPBMCs, CD3 antibody 2 μg/mL, 48 h, compound from 3 μM. Type of assay: cell-based. An outline of the steps:
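Human PBMCs were preincubated 1 h, then exposed to compound (10 points, 3-fold from 3 μM final) with anti-CD3 at 2 μg/mL for 48 h at 37° C. Supernatant IL-2 was measured by ELISA as fold change over DMSO.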

Structures are written as SMILES. Bounds are passed on as bounds.

CBL-B protein, sequence (Q13191 whole entry): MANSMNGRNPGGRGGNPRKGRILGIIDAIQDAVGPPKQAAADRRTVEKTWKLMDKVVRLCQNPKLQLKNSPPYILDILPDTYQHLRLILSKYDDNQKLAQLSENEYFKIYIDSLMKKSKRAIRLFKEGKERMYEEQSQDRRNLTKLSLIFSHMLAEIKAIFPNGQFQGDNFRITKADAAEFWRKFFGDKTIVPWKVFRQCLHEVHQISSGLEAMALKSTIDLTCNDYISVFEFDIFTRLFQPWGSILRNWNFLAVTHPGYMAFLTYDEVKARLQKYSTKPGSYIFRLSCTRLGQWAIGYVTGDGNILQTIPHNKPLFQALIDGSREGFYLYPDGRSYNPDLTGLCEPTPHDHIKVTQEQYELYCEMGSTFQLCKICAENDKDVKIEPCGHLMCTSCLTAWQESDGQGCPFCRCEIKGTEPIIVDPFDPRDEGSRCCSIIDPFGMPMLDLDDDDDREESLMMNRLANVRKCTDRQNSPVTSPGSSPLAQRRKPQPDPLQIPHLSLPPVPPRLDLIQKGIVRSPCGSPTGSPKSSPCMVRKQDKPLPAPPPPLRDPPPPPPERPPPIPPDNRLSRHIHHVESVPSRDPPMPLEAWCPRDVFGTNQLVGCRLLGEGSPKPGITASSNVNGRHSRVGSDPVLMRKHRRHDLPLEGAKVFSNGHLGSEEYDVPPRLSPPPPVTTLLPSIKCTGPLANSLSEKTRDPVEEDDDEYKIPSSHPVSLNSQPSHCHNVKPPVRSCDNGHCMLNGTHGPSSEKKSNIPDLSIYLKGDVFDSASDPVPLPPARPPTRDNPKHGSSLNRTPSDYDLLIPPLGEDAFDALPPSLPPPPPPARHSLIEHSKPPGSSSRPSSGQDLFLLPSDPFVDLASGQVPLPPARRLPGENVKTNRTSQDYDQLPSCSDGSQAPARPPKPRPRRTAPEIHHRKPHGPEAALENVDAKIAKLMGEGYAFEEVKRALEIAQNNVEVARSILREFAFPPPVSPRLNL

What is called Ki is a measure of affinity in units of concentration, obtained from inhibition or displacement. A higher Ki goes with a looser hold on the target. In the case of `Cn1cnnc1[C@]1(c2cccc(-n3cc(C(F)(F)F)c4cc(CN5C[C@@H]6CC[C@@H](C6)C5)[nH]c4c3=O)c2)C[C@H](C)C1` [Compound T087, 2-((3-azabicyclo[3.2.1]octan-3-yl)methyl)-6-(3-((1s,3s)-3-methyl-1-(4-methyl-4H-1,2,4-triazol-3-yl)cyclobutyl)phenyl)-4-(trifluoromethyl)-1,6-dihydro-7H-pyrrolo[2,3-c]pyridin-7-one], at CBL-B protein, the Ki was under 50 nM. The “IL-2 CFC=5/nM” value in assay [1] is under 500 nM.
In turn, `Cn1cnnc1[C@]1(c2cccc(-n3cc(C(F)(F)F)c4cc(CN5CCCC6(CC6)C5)[nH]c4c3=O)c2)C[C@H](C)C1` [Compound T088, 2-((5-azaspiro[2.5]octan-5-yl)methyl)-6-(3-((1s,3s)-3-methyl-1-(4-methyl-4H-1,2,4-triazol-3-yl)cyclobutyl)phenyl)-4-(trifluoromethyl)-1,6-dihydro-7H-pyrrolo[2,3-c]pyridin-7-one] gave a Ki on CBL-B protein of under 50 nM. Further, the “IL-2 CFC=5/nM” value in assay [1] was under 500 nM.
For `Cn1cnnc1C1(c2cccc(-n3cc(C(F)(F)F)c4cc(CNCCCC(F)(F)F)[nH]c4c3=O)c2)CCC1` [Compound T091, 6-[3-[1-(4-methyl-1,2,4-triazol-3-yl)cyclobutyl]phenyl]-2-[(4,4,4-trifluorobutylamino)methyl]-4-(trifluoromethyl)-1H-pyrrolo[2,3-c]pyridin-7-one] the same measures were under 50 nM and under 500 nM.
Regarding `CC[C@H]1C[C@@](c2cccc(-n3cc(C(F)(F)F)c4cc(CN5CCC[C@H](C)C5)[nH]c4c3=O)c2)(c2nncn2C)C1` [Compound T092, 6-(3-((1r,3R)-3-ethyl-1-(4-methyl-4H-1,2,4-triazol-3-yl)cyclobutyl)phenyl)-2-(((S)-3-methylpiperidin-1-yl)methyl)-4-(trifluoromethyl)-1,6-dihydro-7H-pyrrolo[2,3-c]pyridin-7-one], the Ki on CBL-B protein is under 50 nM. Further, the “IL-2 CFC=5/nM” value in assay [1] was under 500 nM.
Turning to `CC[C@H]1C[C@](c2cccc(-n3cc(C(F)(F)F)c4cc(CN5CCC[C@H](C)C5)[nH]c4c3=O)c2)(c2nncn2C)C1` [Compound T093, 6-(3-((1s,3S)-3-ethyl-1-(4-methyl-4H-1,2,4-triazol-3-yl)cyclobutyl)phenyl)-2-(((S)-3-methylpiperidin-1-yl)methyl)-4-(trifluoromethyl)-1,6-dihydro-7H-pyrrolo[2,3-c]pyridin-7-one], the Ki at CBL-B protein was under 50 nM. Moreover, the “IL-2 CFC=5/nM” value in assay [1] is recorded as under 500 nM.
In turn, `Cn1cnnc1C1(c2cccc(-n3cc(C(F)(F)F)c4cc(CNCCOC(F)(F)F)[nH]c4c3=O)c2)CCC1` [Compound T096, 6-[3-[1-(4-methyl-1,2,4-triazol-3-yl)cyclobutyl]phenyl]-2-[[2-(trifluoromethoxy)ethylamino]methyl]-4-(trifluoromethyl)-1H-pyrrolo[2,3-c]pyridin-7-one] came in with a Ki at CBL-B protein of under 50 nM. The “IL-2 CFC=5/nM” value in assay [1] is under 500 nM.
`Cn1cnnc1C1(c2cccc(-n3cc(C(F)(F)F)c4cc(CNCCOC5CCCC5)[nH]c4c3=O)c2)CCC1` [Compound T097, 2-[[2-(cyclopentoxy)ethylamino]methyl]-6-[3-[1-(4-methyl-1,2,4-triazol-3-yl)cyclobutyl]phenyl]-4-(trifluoromethyl)-1H-pyrrolo[2,3-c]pyridin-7-one] came in with a Ki at CBL-B protein of under 50 nM. In assay [1], the “IL-2 CFC=5/nM” value is given as under 500 nM.
For the molecule `CCNCc1cc2c(C(F)(F)F)cn(-c3cccc(C4(c5nncn5C)CCC4)c3)c(=O)c2[nH]1` [Compound T102, 2-((ethylamino)methyl)-6-(3-(1-(4-methyl-4H-1,2,4-triazol-3-yl)cyclobutyl)phenyl)-4-(trifluoromethyl)-1,6-dihydro-7H-pyrrolo[2,3-c]pyridin-7-one], the Ki on CBL-B protein is under 50 nM. Further, in assay [1], the “IL-2 CFC=5/nM” value is recorded as under 500 nM.
The molecule `C[C@H]1CCCN(Cc2cc3c(C(F)(F)F)cn(-c4cc(F)cc([C@]5(c6nncn6C)C[C@H](C)C5)c4)c(=O)c3[nH]2)C1` [Compound T103, 6-(3-fluoro-5-((1r,3S)-3-methyl-1-(4-methyl-4H-1,2,4-triazol-3-yl)cyclobutyl)phenyl)-2-(((S)-3-methylpiperidin-1-yl)methyl)-4-(trifluoromethyl)-1,6-dihydro-7H-pyrrolo[2,3-c]pyridin-7-one] gave an inhibitory constant (Ki) at CBL-B protein of under 50 nM. Moreover, in assay [1], the “IL-2 CFC=5/nM” value was under 500 nM.
For `CC(C)NCc1cc2c(C(F)(F)F)cn(-c3cccc(C4(c5nncn5C)CCC4)c3)c(=O)c2[nH]1` [Compound T104, 2-((isopropylamino)methyl)-6-(3-(1-(4-methyl-4H-1,2,4-triazol-3-yl)cyclobutyl)phenyl)-4-(trifluoromethyl)-1,6-di hydro-7H-pyrrolo[2,3-c]pyridin-7-one] the same measures were under 50 nM and under 500 nM.
As to `C[C@H]1CCCN(Cc2cc3c(C(F)(F)F)cn(-c4cccc(C5(c6nncn6C)CC(F)(F)C5)c4)c(=O)c3[nH]2)C1` [Compound T109, 6-[3-[3,3-difluoro-1-(4-methyl-1,2,4-triazol-3-yl)cyclobutyl]phenyl]-2-[[(3S)-3-methyl-1-piperidyl]methyl]-4-(trifluoromethyl)-1H-pyrrolo[2,3-c]pyridin-7-one], the Ki at CBL-B protein is under 50 nM. For the same molecule, in assay [1], the “IL-2 CFC=5/nM” value was under 500 nM.
`C[C@@H]1CN(Cc2cc3c(C(F)(F)F)cn(-c4cccc(C5(c6nncn6C)CCC5)c4)c(=O)c3[nH]2)CCC1(F)F` [Compound T111, (R)-2-((4,4-difluoro-3-methylpiperidin-1-yl)methyl)-6-(3-(1-(4-methyl-4H-1,2,4-triazol-3-yl)cyclobutyl)phenyl)-4-(trifluoromethyl)-1,6-dihydro-7H-pyrrolo[2,3-c]pyridin-7-one] had a Ki at CBL-B protein of under 50 nM. For the same molecule, the “IL-2 CFC=5/nM” value in assay [1] is under 500 nM.
Molecule `C[C@H]1CCCN(Cc2cc3c(C(F)(F)F)cn(-c4cccc(C5([C@@H](F)c6nncn6C)CC(F)(F)C5)c4)c(=O)c3[nH]2)C1` [Compound T119, 6-(3-(3,3-difluoro-1-((R)-fluoro(4-methyl-4H-1,2,4-triazol-3-yl)methyl)cyclobutyl)phenyl)-2-(((S)-3-methylpiperidin-1-yl)methyl)-4-(trifluoromethyl)-1,6-dihydro-7H-pyrrolo[2,3-c]pyridin-7-one] had a Ki on CBL-B protein of under 50 nM. In addition, the “IL-2 CFC=5/nM” value in assay [1] is reported as under 500 nM.
For `C[C@H]1CCCN(Cc2cc3c(C(F)(F)F)cn(-c4cccc(C5([C@H](F)c6nncn6C)CC(F)(F)C5)c4)c(=O)c3[nH]2)C1` [Compound T120, 6-(3-(3,3-difluoro-1-((S)-fluoro(4-methyl-4H-1,2,4-triazol-3-yl)methyl)cyclobutyl)phenyl)-2-(((S)-3-methylpiperidin-1-yl)methyl)-4-(trifluoromethyl)-1,6-dihydro-7H-pyrrolo[2,3-c]pyridin-7-one] the same measures were under 50 nM and under 500 nM.
`C[C@H]1CCCN(Cc2cc3c(C(F)(F)F)cn(-c4cc(C#N)cc([C@]5(c6nncn6C)C[C@@H](C)C5)c4)c(=O)c3[nH]2)C1` [Compound T121, 3-((1s,3R)-3-methyl-1-(4-methyl-4H-1,2,4-triazol-3-yl)cyclobutyl)-5-(2-(((S)-3-methylpiperidin-1-yl)methyl)-7-oxo-4-(trifluoromethyl)-1,7-dihydro-6H-pyrrolo[2,3-c]pyridin-6-yl)benzonitrile]: the Ki on CBL-B protein was under 50 nM. Besides, in assay [1], the “IL-2 CFC=5/nM” value is under 500 nM.
Turning to `C[C@H]1CCCN(Cc2cc3c(C(F)(F)F)cn(-c4cc(C#N)cc([C@]5(c6nncn6C)C[C@H](C)C5)c4)c(=O)c3[nH]2)C1` [Compound T122, 3-((1r,3S)-3-methyl-1-(4-methyl-4H-1,2,4-triazol-3-yl)cyclobutyl)-5-(2-(((S)-3-methylpiperidin-1-yl)methyl)-7-oxo-4-(trifluoromethyl)-1,7-dihydro-6H-pyrrolo[2,3-c]pyridin-6-yl)benzonitrile], the Ki on CBL-B protein was under 50 nM. In addition, the “IL-2 CFC=5/nM” value in assay [1] is on record as under 500 nM.
For `C[C@H]1CCCN(Cc2cc3c(C(F)(F)F)cn(-c4cccc(C5(Cc6nncn6C)CC(F)(F)C5)c4)c(=O)c3[nH]2)C1` [Compound T126, 6-[3-[3,3-difluoro-1-[(4-methyl-1,2,4-triazol-3-yl)methyl]cyclobutyl]phenyl]-2-[[(3S)-3-methyl-1-piperidyl]methyl]-4-(trifluoromethyl)-1H-pyrrolo[2,3-c]pyridin-7-one] the same measures were under 50 nM and under 500 nM.
On to `C[C@H]1CCCN(Cc2cc3c(C(F)(F)F)cn(-c4cccc([C@]5(c6nncn6C)C[C@@H](OC(F)(F)F)C5)c4)c(=O)c3[nH]2)C1` [Compound T130, 6-(3-((1s,3R)-1-(4-methyl-4H-1,2,4-triazol-3-yl)-3-(trifluoromethoxy)cyclobutyl)phenyl)-2-(((S)-3-methylpiperidin-1-yl)methyl)-4-(trifluoromethyl)-1,6-dihydro-7H-pyrrolo[2,3-c]pyridin-7-one], for which the Ki at CBL-B protein is under 50 nM. Also, the “IL-2 CFC=5/nM” value in assay [1] is listed as under 500 nM.
At CBL-B protein, `C[C@H]1CCCN(Cc2cc3c(C(F)(F)F)cn(-c4cccc([C@]5(c6nncn6C)C[C@H](OC(F)(F)F)C5)c4)c(=O)c3[nH]2)C1` [Compound T131, 6-(3-((1r,3S)-1-(4-methyl-4H-1,2,4-triazol-3-yl)-3-(trifluoromethoxy)cyclobutyl)phenyl)-2-(((S)-3-methylpiperidin-1-yl)methyl)-4-(trifluoromethyl)-1,6-dihydro-7H-pyrrolo[2,3-c]pyridin-7-one] gave an inhibition constant (Ki) of under 50 nM. Besides, the “IL-2 CFC=5/nM” value in assay [1] is recorded as under 500 nM.
